Measurements: US11691898B2, “Water treatment” (ITALMATCH CHEMICALS GB LIMITED, priority 2016, dated 2023)

How the values were obtained:
[1] = test system: Enterobacter aerogenes; test: Log10 reduction in viable count of facultative anaerobic bacteria in a high-TDS aqueous suspension; assay type: cell-based; details: pH 8.0, TDS 30,000 mg l^-1, versus control, 6 = complete kill, ppm active as per example
Protocol: (§1) Aqueous systems inoculated with anaerobe and facultative anaerobe culture and having a total dissolved solids (TDS) concentration of 30,000 mg l^−1 were prepared and treated with treatment agents comprising: (a) tri n-butyl n-tetradecyl phosphonium chloride (TTPC) and (b) NaClO2.
(§2) A suspension of Desulfovibrio vulgaris plus Enterobacter aerogenes bacteria containing from 1×10^5 to 1×10^6 cells/mL was prepared in sterile pH 8 phosphate buffer containing sodium chloride to give the desired total dissolved solids (TDS) concentration. Aliquots of this suspension were dosed with the indicated concentrations of the compounds (a) and (b) with the concentrations being measured as ppm active. The mixtures were allowed to stand at room temperature. At the designated contact times, each mixture was sampled to determine the total number of viable cells of both Desulfovibrio vulgaris and Enterobacter aerogenes by serial 10-fold dilution into API RP 38 media vials and anaerobic acid producing media vials, respectively. The vials were incubated at 37° C. for 72 hours. Results were recorded as log10 reduction in the viable count versus the control.
(§3) The efficacy of the treatment agents was evaluated by measuring the Log10 Reduction of the anaerobic bacterium Desulfovibrio vulgaris and the facultative anaerobic bacterium Enterobacter aerogenes after contact times of 1 hour, 4 hours and 24 hours as detailed in Table 1. For TTPC the stated ppm value relates to the amount of TTPC added (active). For NaClO2 the stated ppm relates to the amount of NaClO2 added (active).

[2] = test system: Desulfovibrio vulgaris; test: Log10 reduction in viable count of anaerobic bacteria in a high-TDS aqueous suspension; assay type: cell-based; details: for Log10 Reduction Anaerobes*: pH 8.0, TDS 30,000 mg l^-1, versus control, 5 = complete kill, ppm active as per example; for effectiveness against anaerobes (in words): alone
Protocol: as §1, §2, §3

Compound: CCCCCCCCCCCCCC[P+](CCCC)(CCCC)CCCC.[Cl-] [1(comparative), tri n-butyl n-tetradecyl phosphonium chloride]
- Log10 Reduction Facultative Anaerobes** ([1]; contact time 1 hour): 0
- Log10 Reduction Anaerobes* ([2]; contact time 1 hour): 2

Compound: CCCCCCCCCCCCCC[P+](CCCC)(CCCC)CCCC.[Cl-] [2(comparative), tri n-butyl n-tetradecyl phosphonium chloride]
- Log10 Reduction Facultative Anaerobes** ([1]; contact time 1 hour): 3
- Log10 Reduction Anaerobes* ([2]; contact time 1 hour): 5

Compound: [Na+].[O-][Cl+][O-] [4(comparative), NaClO2]
- Log10 Reduction Facultative Anaerobes** ([1]; contact time 1 hour): 0
- Log10 Reduction Anaerobes* ([2]; contact time 1 hour): 0

Compound: CCCCCCCCCCCCCC[P+](CCCC)(CCCC)CCCC.[Cl-] [9(comparative), tri n-butyl n-tetradecyl phosphonium chloride]
- Log10 Reduction Facultative Anaerobes** ([1]; contact time 4 hours): 3
- Log10 Reduction Anaerobes* ([2]; contact time 4 hours): 5

Compound: CCCCCCCCCCCCCC[P+](CCCC)(CCCC)CCCC.[Cl-] [10(comparative), tri n-butyl n-tetradecyl phosphonium chloride]
- Log10 Reduction Facultative Anaerobes** ([1]; contact time 4 hours): 4
- Log10 Reduction Anaerobes* ([2]; contact time 4 hours): 5

Compound: [Na+].[O-][Cl+][O-] [11(comparative), NaClO2]
- Log10 Reduction Facultative Anaerobes** ([1]; contact time 4 hours): 0
- Log10 Reduction Anaerobes* ([2]; contact time 4 hours): 0

Compound: [Na+].[O-][Cl+][O-] [12(comparative), NaClO2]
- Log10 Reduction Facultative Anaerobes** ([1]; contact time 4 hours): 0
- Log10 Reduction Anaerobes* ([2]; contact time 4 hours): 1

Compound: CCCCCCCCCCCCCC[P+](CCCC)(CCCC)CCCC.[Cl-] [17(comparative), tri n-butyl n-tetradecyl phosphonium chloride]
- Log10 Reduction Facultative Anaerobes** ([1]; contact time 24 hours): 5
- Log10 Reduction Anaerobes* ([2]; contact time 24 hours): 5

Compound: CCCCCCCCCCCCCC[P+](CCCC)(CCCC)CCCC.[Cl-] [18(comparative), tri n-butyl n-tetradecyl phosphonium chloride]
- Log10 Reduction Facultative Anaerobes** ([1]; contact time 24 hours): 6
- Log10 Reduction Anaerobes* ([2]; contact time 24 hours): 5

Compound: [Na+].[O-][Cl+][O-] [19(comparative), NaClO2]
- Log10 Reduction Facultative Anaerobes** ([1]; contact time 24 hours): 0
- Log10 Reduction Anaerobes* ([2]; contact time 24 hours): 4

Compound: [Na+].[O-][Cl+][O-] [NaClO2]
- effectiveness against anaerobes (in words) ([2]; longer contact times): limited effectiveness
- effectiveness against anaerobes (in words) ([2]; short contact times): ineffective
